A short description of series [1]: Growth inhibition of in human QGP1 cells incubated for 72 hrs. The class given is functional, cell-based. Conditions: QGP-1, 72 h.
A short description of series [2]: Growth inhibition of in human BON1 cells incubated for 72 hrs. The class given is functional, cell-based.
Series [3] in a line: Growth inhibition of in human MIP101 cells incubated for 72 hrs. It is filed as functional, cell-based.
Series [4] can be described thus: Suppression of cell mitosis in human multiple myeloma cells. It is filed as functional.
Series [5] has as its system MM1.S. In words: Antitumor activity against human MM1S cells xenografted in gamma-irradiated CB17 SCID mouse assessed as inhibition of tumor growth at 15 mg/kg, po dosed daily for 21 days. The class given is functional. Conditions: light or radiation study, 504 h, read-out: TGI.
The test system of series [6] is MM1.S. In words: Antitumor activity against human MM1S cells xenografted in gamma-irradiated CB17 SCID mouse assessed as inhibition of tumor growth at 30 mg/kg, po dosed daily for 21 days. The class given is functional. Particulars: light or radiation study, 504 h, read-out: TGI.
In another series the target is Aurora kinase B (Homo sapiens, UniProt Q96GD4). Kind of series: Inhibition of recombinant aurora B (unknown origin).
The target of another series is Aurora kinase A (Homo sapiens, UniProt O14965). In words: Inhibition of recombinant aurora 2 (unknown origin) expressed in Sf21 insect cells incubated for 60 mins using [biotin LRRWSLGLRRWSLGLRRWSLGLRRWSLG substrate and [gamma33P]ATP by beta plate counting method.
Series [7] deals with Aurora kinase B/Inner centromere protein (Homo sapiens) (UniProt Q96GD4+Q9NQS7).
Description: Inhibition of human Aurora B/INCENP assessed as dissociation half life pre-incubated for 30 mins before 5-FAM-PKAtide substrate addition and measured after 120 mins
In series [8] the test system is HCT-116. Kind of series: Antitumor activity against human HCT116 cells xenografted in mouse assessed as inhibition of tumor growth at 15 to 60 mg/kg, po. It is filed as functional.
Series [9] relates to HCT-116. In words: Antitumor activity against human HCT116 cells xenografted in mouse assessed as inhibition of tumor growth at 15 mg/kg. It is filed as functional. Particulars: read-out: TGI.
The nature of series [10]: Half life in tumor of mouse xenografted with human HCT116 cells at 15 to 20 mg/kg. It is filed as ADME, organism-based, Neoplasm.
Series [11] has as its system HCT-116. In words: Antitumor activity against human HCT116 cells xenografted in mouse assessed as inhibition of tumor growth at 20 mg/kg. The class given is functional. Conditions: read-out: TGI.
The next series deals with SW-620. In words: Growth inhibition of human SW620 cells incubated for 72 hrs by MTT assay. It is filed as functional. Particulars: SW-620, 72 h.
Series [12] is described as follows: Inhibition of CYP450 (unknown origin). It is filed as ADME, Homo sapiens.
A further series has as its system A2780. Kind of series: Growth inhibition of human A2780 cells incubated for 72 hrs by MTT assay. The class given is functional. Particulars: A2780, 72 h.
Another series concerns HL-60. In words: Antitumor activity against human HL60 cells xenografted in rat assessed as inhibition of tumor growth at 25 mg/kg, iv bid. It is filed as functional. Particulars: HL-60, iv, read-out: TGI.
The subject of series [13] is PC-3. Kind of series: Antitumor activity against human PC3 cells xenografted in nude mouse assessed as inhibition of tumor growth at 10 mg/kg, po qd. The class given is functional. Particulars: PC-3, po, read-out: TGI.
The test system of series [14] is PC-3. In words: Antitumor activity against human PC3 cells xenografted in nude mouse assessed as inhibition of tumor growth at 30 mg/kg, po qd. The class given is functional. Conditions: PC-3, po, read-out: TGI.

Chain of Aurora kinase A (O14965 whole entry): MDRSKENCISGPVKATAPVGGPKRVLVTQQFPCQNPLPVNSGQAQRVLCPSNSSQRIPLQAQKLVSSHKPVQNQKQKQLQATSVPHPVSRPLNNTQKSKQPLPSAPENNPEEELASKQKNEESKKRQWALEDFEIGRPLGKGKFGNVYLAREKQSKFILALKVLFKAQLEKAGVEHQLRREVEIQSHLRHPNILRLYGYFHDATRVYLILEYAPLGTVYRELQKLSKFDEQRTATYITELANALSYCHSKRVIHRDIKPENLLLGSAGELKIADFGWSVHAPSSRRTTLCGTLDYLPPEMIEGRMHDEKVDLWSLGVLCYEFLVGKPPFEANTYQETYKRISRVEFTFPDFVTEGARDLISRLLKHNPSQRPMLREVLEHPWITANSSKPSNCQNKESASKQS
Chain of Aurora kinase B (Q96GD4 whole entry): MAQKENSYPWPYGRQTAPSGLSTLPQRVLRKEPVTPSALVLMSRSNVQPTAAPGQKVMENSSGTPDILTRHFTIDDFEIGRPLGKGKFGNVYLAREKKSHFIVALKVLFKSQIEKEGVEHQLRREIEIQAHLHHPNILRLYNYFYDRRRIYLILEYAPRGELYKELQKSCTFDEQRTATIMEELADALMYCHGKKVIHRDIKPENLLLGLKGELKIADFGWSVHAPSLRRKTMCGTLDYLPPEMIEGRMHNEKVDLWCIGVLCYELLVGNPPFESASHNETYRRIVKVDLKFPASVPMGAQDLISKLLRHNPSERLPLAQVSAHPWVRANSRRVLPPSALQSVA

`COc1cc2c(Nc3ccc(NC(=O)c4ccccc4)cc3)ncnc2cc1OCCCN1CCOCC1`: the results for the half-inhibitory concentration (IC50) in series [1], in [2] and in series [3] were 900 nM, 3000 nM and 3000 nM, respectively.

Compound `COc1cc(Nc2ncc3c(n2)-c2ccc(Cl)cc2C(c2c(F)cccc2OC)=NC3)ccc1C(=O)O` [ALISERTIB] showed an IC50 in series [4] of 3 to 1710 nM. Moreover, the inhibition in vivo at 15 mg/kg with MM1.S [5] worked out at 42%. In addition, the inhibition in vivo at 30 mg/kg in the series with MM1.S [6] was 80%.

`COc1cc2c(Nc3ccc(C(=O)Nc4ccccc4)cc3)ncnc2cc1O`: the half-maximal inhibitory concentration (IC50) at Aurora kinase B was 41 nM; on Aurora kinase A it was 60 nM.

For `CCn1cc(-c2ccnc3[nH]c(-c4cccc(CN(C)C)c4)cc23)c(-c2ccc(NC(=O)N(C)C)cc2)n1`, in series [7], the T1/2 was determined as 8 h.

On to `CCc1cccc(CC)c1NC(=O)N1Cc2[nH]nc(NC(=O)c3ccc(N4CCN(C)CC4)cc3)c2C1` [PHA-680632], for which the TGI with HCT-116 [8] is on record as 70%.

As to `O=C(Nc1c[nH]nc1-c1nc2ccc(CN3CCOCC3)cc2[nH]1)NC1CC1` [AT-9283], the inhibition in vivo at 15 mg/kg in the series with HCT-116 [9] is 67%. Also, in series [10], the half-life is 2.5 h. Further, in the series on HCT-116 [11], the inhibition in vivo at 20 mg/kg is 76%.

Take `Cc1cc(CN2CCN(c3c(Br)cnc4nc(-c5ccc(N6CCN(C)CC6)cc5)[nH]c34)CC2)no1`: the GI50 in the series on SW-620 stood at 140 nM; in the series with A2780 it was 300 nM. Besides, the half-inhibitory concentration (IC50) in [12] is above 10000 nM.

For the compound `CO[C@@H](C(=O)N1Cc2[nH]nc(NC(=O)c3ccc(N4CCN(C)CC4)cc3)c2C1)c1ccccc1` [DANUSERTIB], the inhibition in vivo at 25 mg/kg with HL-60 is 75%.

With `O=C(O)c1ccc(Nc2ncc3c(n2)-c2ccc(Cl)cc2C(c2c(F)cccc2F)=NC3)cc1` [MLN-8054], the inhibition in vivo at 10 mg/kg in the series with PC-3 [13] was found to be 76%. Also, the inhibition in vivo at 30 mg/kg in the series with PC-3 [14] is 84%.
